Holding throughout (test): in-line probing
The subject of test [1] is 92 allB (RNA, riboswitch) GGCAGAAUAAGCUCUUGUAUAAGCUCAUUAAUCCGGUUUGAGCGUUUCGACCAGGCGACCGUAAAUUGCCCCAGGCUACAAGAGGUGCAGGAAA
As to conditions: 100 mM K+, 20 mM Mg2+, 100 mM Tris-HCl pH 8.3, room temperature, ~40 h.

The test system of test [2] is 92 PRT (RNA, riboswitch) GGAAUCAAACAUCUCUUGUAUAAGCUCGUUAAUUUGGAAUGAGCGUAUCUACAGGCAACCGUAAAUUGCCCCAGGCUACAAGAGGCCAGACAAG
Particulars: 100 mM K+, 20 mM Mg2+.

The test system of test [3] is 94 nuc (RNA, riboswitch) GGAAAAAAAAUUAUUUUUCGUAUAUCCUUAAUGAUAUGGUUUAAGGGCAAUACAUAGAAACCACAAAUUUCUUACUGCGAAAAAUAUGCUUCUUUA
Particulars: 100 mM K+, 20 mM Mg2+; 100 mM Tris-HCl pH 8.3, room temperature, ~40 h.

By KD is commonly meant the equilibrium constant for the complex coming apart. Low values mean tighter binding, high ones weaker binding. `Nc1nc2[nH]cnc2c(=O)[nH]1`: the binding result in test [1] (100 µM compound) is “no”. Also, the KD in test [2] was < 8.3 nM. As for `Nc1nc2c(ncn2[C@H]2C[C@H](O)[C@@H](CO)O2)c(=O)[nH]1`, in test [3], the KD is reported as ~ 1.5 μM. For the compound `O=c1[nH]c(=O)c2[nH]cnc2[nH]1`, the KD in test [1] was ~ 36.5 µM. The binding entry in test [2] (100 mM Tris-HCl pH 8.3, room temperature, ~40 h, 100 µM compound) is recorded as “no”.

The record behind these values is PMC9295807 (2022).
